Settings: 101.33 kPa, Liquid; for viscosity: Cone and plate viscometry; for mass density: Vibrating tube method

c1cn(CCOCCOCCOCCn2ccnc2)cn1
Settings | mass density [kg/m3] | viscosity [mPa·s]
298.2 K | 1172.67 | 535.6
303.2 K | 1168.77 | 356
308.2 K | 1164.87 | 240.2
313.2 K | 1161.05 | 178.2
318.2 K | 1157.29 | 129.2
323.2 K | 1153.51 | 93.9
328.2 K | 1149.74 | 69.8
333.2 K | 1145.96 | 56.8
338.2 K | 1142.19 | 44.9
343.2 K | 1138.43 | 36.7
348.2 K | 1134.66 | 29.1
353.2 K | 1130.91 | 24.9

CCCCCCCCCCCCn1ccnc1 [1-dodecyl-1H-imidazole]
Settings | mass density [kg/m3] | viscosity [mPa·s]
298.2 K | 898.68 | 24
303.2 K | 895.23 | 20.1
308.2 K | 891.79 | 15.9
313.2 K | 888.35 | 13.3
318.2 K | 884.92 | 11.1
323.2 K | 881.49 | 9.42
328.2 K | 878.07 | 8.06
333.2 K | 874.64 | 6.96
338.2 K | 871.22 | 6
343.2 K | 867.81 | 5.33
348.2 K | 864.4 | 4.7
353.2 K | 860.98 | 4.16

From the NIST ThermoML archive (doi:10.1016/j.fluid.2014.06.026)
